Publication PMC12371492, “Poly-Arginine Tails and Helical Segments of Natural Antimicrobial Peptides Display Concerted Action at Membranes for Enhanced Antimicrobial Effects” (ACS Bio & Med Chem Au, 2025)
Where two headings read alike, the source gives them in different places. Ends that are not written are not given here.

Assays:
[1] = system: Escherichia coli (E. coli) MG1655; type: cell-based
Method: (§1) Minimum inhibitory concentrations were determined by broth microdilution technique. Two bacterial species were used: Gram-positive bacteria Staphylococcus epidermidis (S. epidermidis), derived from ATCC 14990 and Gram-negative bacteria Escherichia coli (E. coli) MG1655, respectively. S. epidermidis was grown in TSB, and E. coli was grown in MHB. Both were stored at 4 °C on their respective growth medium agar plates. Before the assay, bacteria were grown overnight in 5 mL of growth medium at 37 °C. The grown bacteria were further subcultured in 3 mL of growth medium by diluting to 1% until the O.D. reached 0.4–0.6 within 2.5–3 h. After the bacteria reached the mid log phase, further dilution was made to attain an O.D. of 0.001 to get a final of ∼10^5 CFU/mL in each well of a 96-well plate. An Opentron OT_2 robot pipetting system was used to automatically prepare serial dilutions of peptides and add the bacteria to attain a total volume of 100 μL in each well. The wells containing only medium served as a negative blank. The plate was then incubated for 24 h at 37 °C, and the O.D. of the plate was recorded at 600 nm using a BioTek (Agilent, Santa Clara, CA) microplate reader (Figure S1). The lowest concentration at which no bacterial growth was observed was considered the MIC of the peptide.

[2] = system: Staphylococcus epidermidis (S. epidermidis), derived from ATCC 14990; type: cell-based
Method: as §1

[3] = Calcein dye leakage assay on LUVs
Method: Calcein leakage assays were done on large unilamellar vesicles (LUVs) following a procedure previously described. , Briefly, a 3:1 POPC/POPG lipid film (containing 4 μmol total of lipids) was prepared in a round-bottom flask using the lipids dissolved in chloroform. The solvent was removed under N2 gas before drying overnight under vacuum. The next day, the lipid cake was hydrated with 300 μL of 80 mmol/L calcein dye (pH 7.4) to generate a suspension that was subjected to 3 freeze–thaw cycles before extrusion through a 0.1 μm polycarbonate filter placed in a mini extruder (Avanti Polar Lipids). Untrapped calcein was separated from the LUVs by chromatography using a Sephadex G-50 column run with HEPES buffer (50 mmol/L, 100 mmol/L NaCl, 0.3 mmol/L EDTA, pH 7.4). A total phosphorus assay was performed to determine the exact lipid concentration of the LUVs. After diluting the vesicles to a final concentration of ∼35 μmol/L, the LUVs were plated in 180 μL wells and exposed to 20 μL of TP4 solutions serially diluted from stock, as needed to generate peptide-to-lipid ratios (P/L) ranging from P/L = 1:2 and 1:1024. Triplicates of each well were run, and at least three independent assays were performed as well. The 96-well plate was incubated at 20 °C with shaking for 40 min. After equilibration at room temperature, the fluorescence was measured using a BioTek SynergyH1 plate reader (BioTek, Winooski, VT) using excitation and emission wavelengths of 490 and 520 nm, respectively. The fractional leakage produced by TP4 was calculated using the equation: %leakage=Ix−I0%/I100%−I0% where I x is the fluorescence intensity in a peptide-containing well, I 100% is the intensity of the positive control (100% leakage obtained with 20 μL of 1% Triton-X detergent), and I 0% is the intensity of the negative control (0% leakage obtained with 20 μL nanopure water). P1 was run in parallel for comparative purposes. The dose–response curves were fitted in GraphPad Prism using a modified version of the Hill equation to extract the EC50 as the P/L where half of the dye has been released. […]

[4] = system: Vibrio cholerae O1 El Tor strain C6706; type: cell-based; conditions: CM9-Hepes pH 7.4, 5 × 10^5 cfu/mL, 20 h at 37 °C shaking, OD 600 nm, triplicate
[5] = system: bacteria; conditions: bacteria and source not stated (discussion)
[6] = broth microdilution, MHB, ~10^5 CFU/mL, 24 h at 37 °C, O.D. 600 nm, lowest concentration with no growth
[7] = broth microdilution, TSB, ~10^5 CFU/mL, 24 h at 37 °C, O.D. 600 nm, lowest concentration with no growth

Substance	MIC E. coli [1, 6]	MIC S. epidermidis [2, 7]	MIC Vibrio cholerae [4]	MIC values [5]	other results
QLAQALAAALAALAQGW-NH2 [NP]	>64 µM	>64 µM			
FIHHIIGGLFSAGKAIHRLI-NH2 [TP4-noR5]	16 µM	2 µM			
FFHHIFRGIVHVGKTIHRLVTGRRRRR-NH2 [P1-R5, P1 with the R5 motif added at the C-terminal end]					EC50, L/P yielding 50% calcein leakage ([3]; 3:1 POPC/POPG LUVs ~35 μmol/L lipid, HEPES pH 7.4, 40 min at 20 °C, fluorescence 490/520 nm, ± standard error, three assays in triplicate): 97.2 ± 3.4 L/P; calcein leakage ([3]; POPC/POPG liposomes, P/L of 1:10): 100%; factor more active than P1 (EC50 ratio) ([3]; calcein leakage, 3:1 POPC/POPG LUVs): 3.4 fold
FIHHIIGGLFSAGKAIHRLIRRRRR-NH2 [TP4]			1 µM	< 1 µM	MIC E. coli ([1]; MG1655, 24 h): 4 µM; MIC S. epidermidis ([2]; ATCC 14990, 24 h): 1 µM
QLAQALAAALAALAQGWRRRRR-NH2 [NP-R5]	7.5 µM	2 µM			
FFHHIFRGIVHVGKTIHRLVTG-NH2 [P1, reference compound]			16 µM	< 1 µM	
